Experimental data taken from patent US8741836B2, “Polypeptides” (Novo Nordisk A/S, priority 2011, dated 2014).
Starred links: 1 amine or outer side, 2 acyl side, 3 side chain; linkers in the order of their positions; H or OH if unused. Positions of bridges follow the written chain, without caps; N, C: chain ends. Residues, ends and D or L forms follow the SMILES beside them. *: point of attachment. C20 diacid = O=C(O)CCCCCCCCCCCCCCCCCCC(=O)*; γGlu = O=C(O)[C@H](CCC(=O)[*:2])N[*:1]

Assay: Assay (III) ThT fibrillation assay for physical stability
Assay type: physicochemical
Conditions: for ThT pH 4.0 lag time: pH 4.0, ThT fibrillation assay
In short: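 Freshly prepared, pH-adjusted formulations with 1 μM ThT incubated at 37 °C under 960 rpm orbital shaking (1 mm), fluorescence (ex 444, em 485 nm) read every 20 min. […] Peptide content before and after measured by reverse-phase HPLC against pramlintide standard.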

| Compound | ThT pH 4.0 lag time | ThT pH 4.0 lag time (physical stability in fibrillogenesis assay) |
| --- | --- | --- |
| CC[C@H](C)[C@H](NC(=O)[C@@H]1CCCN1C(=O)CNC(=O)[C@H](Cc1ccccc1)NC(=O)[C@H](CC(N)=O)NC(=O)[C@H](CC(N)=O)NC(=O)[C@H](CO)NC(=O)[C@H](CO)NC(=O)[C@H](CCCNC(=N)N)NC(=O)[C@H](Cc1c[nH]cn1)NC(=O)[C@H](CC(C)C)NC(=O)[C@H](Cc1ccccc1)NC(=O)[C@H](CCC(=O)O)NC(=O)[C@H](C)NC(=O)[C@H](CC(C)C)NC(=O)[C@H](CCCNC(=N)N)NC(=O)[C@H](CCC(N)=O)NC(=O)[C@@H](NC(=O)[C@H](C)NC(=O)[C@@H]1CSSC[C@H](NC(=O)[C@H](Cc2c[nH]cn2)NC(=O)CC[C@H](NC(=O)CCCCCCCCCCCCCCCCCCC(=O)O)C(=O)O)C(=O)N[C@@H](CC(N)=O)C(=O)N[C@@H]([C@@H](C)O)C(=O)N[C@@H](C)C(=O)N[C@@H]([C@@H](C)O)C(=O)N1)[C@@H](C)O)C(=O)N[C@@H](CC(C)C)C(=O)N1CCC[C@H]1C(=O)N1CCC[C@H]1C(=O)N[C@H](C(=O)N[C@@H](CC(N)=O)C(=O)N[C@H](C(=O)NCC(=O)N[C@@H](CO)C(=O)N[C@@H](Cc1c[nH]cn1)C(=O)N[C@H](C(=O)N[C@@H](Cc1ccc(O)cc1)C(N)=O)[C@@H](C)O)C(C)C)[C@@H](C)O [Example 77, N-alpha-[(S)-4-Carboxy-4-(19-carboxynonadecanoylamino)butyryl]-[His1,Glu14,His17,Arg18,His35]-pramlintide] ({C20 diacid-γGlu}-HCNTATCATQRLAEFLHRSSNNFGPILPPTNVGSHTY-NH2; disulfide 2-7 (inferred)) | >45 h | – |
| CC[C@H](C)[C@H](NC(=O)[C@@H]1CCCN1C(=O)CNC(=O)[C@H](Cc1ccccc1)NC(=O)[C@H](CC(N)=O)NC(=O)[C@H](CC(N)=O)NC(=O)[C@H](CO)NC(=O)[C@H](CO)NC(=O)[C@H](Cc1c[nH]cn1)NC(=O)[C@H](Cc1c[nH]cn1)NC(=O)[C@H](CC(C)C)NC(=O)[C@H](Cc1ccccc1)NC(=O)[C@H](CCC(=O)O)NC(=O)[C@H](C)NC(=O)[C@H](CC(C)C)NC(=O)[C@H](CCCNC(=N)N)NC(=O)[C@H](CCC(N)=O)NC(=O)[C@@H](NC(=O)[C@H](C)NC(=O)[C@@H]1CSSC[C@H](NC(=O)[C@H](CCCCN)NC(=O)[C@H](CO)NC(=O)CC[C@H](NC(=O)CCCCCCCCCCCCCCCCCCC(=O)O)C(=O)O)C(=O)N[C@@H](CC(N)=O)C(=O)N[C@@H]([C@@H](C)O)C(=O)N[C@@H](C)C(=O)N[C@@H]([C@@H](C)O)C(=O)N1)[C@@H](C)O)C(=O)N[C@@H](CC(C)C)C(=O)N1CCC[C@H]1C(=O)N1CCC[C@H]1C(=O)N[C@H](C(=O)N[C@@H](CC(N)=O)C(=O)N[C@H](C(=O)NCC(=O)N[C@@H](CO)C(=O)N[C@@H](Cc1c[nH]cn1)C(=O)N[C@H](C(=O)N[C@@H](Cc1ccc(O)cc1)C(N)=O)[C@@H](C)O)C(C)C)[C@@H](C)O [Example 85, N-alpha-[(S)-4-Carboxy-4-(19-carboxynonadecanoylamino)butyryl]-Ser-[Glu14,His17,His35]-pramlintide] ({C20 diacid-γGlu}-SKCNTATCATQRLAEFLHHSSNNFGPILPPTNVGSHTY-NH2; disulfide 3-8) | >45 h | – |
| CC[C@H](C)[C@H](NC(=O)[C@@H]1CCCN1C(=O)CNC(=O)[C@H](Cc1ccccc1)NC(=O)[C@H](CC(N)=O)NC(=O)[C@H](CC(N)=O)NC(=O)[C@H](CO)NC(=O)[C@H](CO)NC(=O)[C@H](Cc1c[nH]cn1)NC(=O)[C@H](Cc1c[nH]cn1)NC(=O)[C@H](CC(C)C)NC(=O)[C@H](Cc1ccccc1)NC(=O)[C@H](CCC(=O)O)NC(=O)[C@H](C)NC(=O)[C@H](CC(C)C)NC(=O)[C@H](CCCNC(=N)N)NC(=O)[C@H](CCC(N)=O)NC(=O)[C@@H](NC(=O)[C@H](C)NC(=O)[C@@H]1CSSC[C@H](NC(=O)[C@H](CCCCN)NC(=O)CC[C@H](NC(=O)CCCCCCCCCCCCCCCCCCC(=O)O)C(=O)O)C(=O)N[C@@H](CC(N)=O)C(=O)N[C@@H]([C@@H](C)O)C(=O)N[C@@H](C)C(=O)N[C@@H]([C@@H](C)O)C(=O)N1)[C@@H](C)O)C(=O)N[C@@H](CC(C)C)C(=O)N1CCC[C@H]1C(=O)N1CCC[C@H]1C(=O)N[C@H](C(=O)N[C@@H](CC(N)=O)C(=O)N[C@H](C(=O)NCC(=O)N[C@@H](CO)C(=O)N[C@@H](CCCNC(=N)N)C(=O)N[C@H](C(=O)N[C@@H](Cc1ccc(O)cc1)C(N)=O)[C@@H](C)O)C(C)C)[C@@H](C)O [Example 112, N-alpha-[(S)-4-Carboxy-4-(19-carboxynonadecanoylamino)butyryl]-[Glu14,His17,Arg35]-pramlintide] ({C20 diacid-γGlu}-KCNTATCATQRLAEFLHHSSNNFGPILPPTNVGSRTY-NH2; disulfide 2-7 (inferred)) | >45 h | – |
| CC[C@H](C)[C@H](NC(=O)[C@@H]1CCCN1C(=O)CNC(=O)[C@H](Cc1ccccc1)NC(=O)[C@H](CC(N)=O)NC(=O)[C@H](CC(N)=O)NC(=O)[C@H](CO)NC(=O)[C@H](CO)NC(=O)[C@H](Cc1c[nH]cn1)NC(=O)[C@H](Cc1c[nH]cn1)NC(=O)[C@H](CC(C)C)NC(=O)[C@H](Cc1ccccc1)NC(=O)[C@H](CCC(=O)O)NC(=O)[C@H](C)NC(=O)[C@H](CC(C)C)NC(=O)[C@H](CCCNC(=N)N)NC(=O)[C@H](CCC(N)=O)NC(=O)[C@@H](NC(=O)[C@H](C)NC(=O)[C@@H]1CSSC[C@H](NC(=O)[C@H](CCCCN)NC(=O)CC[C@H](NC(=O)CCCCCCCCCCCCCCCCCCC(=O)O)C(=O)O)C(=O)N[C@@H](CC(N)=O)C(=O)N[C@@H]([C@@H](C)O)C(=O)N[C@@H](C)C(=O)N[C@@H]([C@@H](C)O)C(=O)N1)[C@@H](C)O)C(=O)N[C@@H](CC(C)C)C(=O)N1CCC[C@H]1C(=O)N1CCC[C@H]1C(=O)N[C@H](C(=O)N[C@@H](CC(N)=O)C(=O)N[C@H](C(=O)NCC(=O)N[C@@H](CO)C(=O)N[C@@H](CCCCN)C(=O)N[C@H](C(=O)N[C@@H](Cc1ccc(O)cc1)C(N)=O)[C@@H](C)O)C(C)C)[C@@H](C)O [Example 113, N-alpha-[(S)-4-Carboxy-4-(19-carboxynonadecanoylamino)butyryl]-[Glu14,His17,Lys35]-pramlintide] ({C20 diacid-γGlu}-KCNTATCATQRLAEFLHHSSNNFGPILPPTNVGSKTY-NH2; disulfide 2-7 (inferred)) | >45 h | >45 h |
| CC[C@H](C)[C@H](NC(=O)[C@@H]1CCCN1C(=O)CNC(=O)[C@H](Cc1ccccc1)NC(=O)[C@H](CCC(N)=O)NC(=O)[C@H](CCC(N)=O)NC(=O)[C@H](CO)NC(=O)[C@H](CO)NC(=O)[C@H](Cc1c[nH]cn1)NC(=O)[C@H](CCCNC(=N)N)NC(=O)[C@H](CC(C)C)NC(=O)[C@H](Cc1ccccc1)NC(=O)[C@H](CCC(=O)O)NC(=O)[C@H](C)NC(=O)[C@H](CC(C)C)NC(=O)[C@H](CCCNC(=N)N)NC(=O)[C@H](CCC(N)=O)NC(=O)[C@@H](NC(=O)[C@H](C)NC(=O)[C@@H]1CSSC[C@H](NC(=O)[C@H](CCC(=O)O)NC(=O)[C@H](CCCNC(=N)N)NC(=O)[C@H](CCC(=O)O)NC(=O)CC[C@H](NC(=O)CCCCCCCCCCCCCCCCCCC(=O)O)C(=O)O)C(=O)N[C@@H](CC(N)=O)C(=O)N[C@@H]([C@@H](C)O)C(=O)N[C@@H](C)C(=O)N[C@@H]([C@@H](C)O)C(=O)N1)[C@@H](C)O)C(=O)N[C@@H](CC(C)C)C(=O)N1CCC[C@H]1C(=O)N1CCC[C@H]1C(=O)N[C@H](C(=O)N[C@@H](CCC(N)=O)C(=O)N[C@H](C(=O)NCC(=O)N[C@@H](CO)C(=O)N[C@@H](CCC(N)=O)C(=O)N[C@H](C(=O)N1CCC[C@H]1C(N)=O)[C@@H](C)O)C(C)C)[C@@H](C)O [Example 164, N-alpha-[(S)-4-Carboxy-4-(19-carboxynonadecanoylamino)butyryl]-Glu-Arg-[Glu1,Glu14,Arg17,Gln21,Gln22,Gln31,Gln35,Pro37]-pramlintide] ({C20 diacid-γGlu}-ERECNTATCATQRLAEFLRHSSQQFGPILPPTQVGSQTP-NH2; disulfide 4-9 (inferred)) | >45 h | >45 h |
| CC[C@H](C)[C@H](NC(=O)[C@@H]1CCCN1C(=O)CNC(=O)[C@H](Cc1ccccc1)NC(=O)[C@H](CC(N)=O)NC(=O)[C@H](CC(N)=O)NC(=O)[C@H](CO)NC(=O)[C@H](CO)NC(=O)[C@H](Cc1c[nH]cn1)NC(=O)[C@H](Cc1c[nH]cn1)NC(=O)[C@H](CC(C)C)NC(=O)[C@H](Cc1ccccc1)NC(=O)[C@H](CCC(=O)O)NC(=O)[C@H](C)NC(=O)[C@H](CC(C)C)NC(=O)[C@H](CCCCN)NC(=O)[C@H](CCC(N)=O)NC(=O)[C@@H](NC(=O)[C@H](C)NC(=O)[C@@H]1CSSC[C@H](NC(=O)[C@H](CCCCN)NC(=O)CC[C@H](NC(=O)CCCCCCCCCCCCCCCCCCC(=O)O)C(=O)O)C(=O)N[C@@H](CC(N)=O)C(=O)N[C@@H]([C@@H](C)O)C(=O)N[C@@H](C)C(=O)N[C@@H]([C@@H](C)O)C(=O)N1)[C@@H](C)O)C(=O)N[C@@H](CC(C)C)C(=O)N1CCC[C@H]1C(=O)N1CCC[C@H]1C(=O)N[C@H](C(=O)N[C@@H](CC(N)=O)C(=O)N[C@H](C(=O)NCC(=O)N[C@@H](CO)C(=O)N[C@@H](CC(N)=O)C(=O)N[C@H](C(=O)N1CCC[C@H]1C(N)=O)[C@@H](C)O)C(C)C)[C@@H](C)O [Example 145, N-alpha-[(S)-4-Carboxy-4-(19-carboxynonadecanoylamino)butyryl]-[Lys11,Glu14,His17,Pro37]-pramlintide] ({C20 diacid-γGlu}-KCNTATCATQKLAEFLHHSSNNFGPILPPTNVGSNTP-NH2; disulfide 2-7) | >45 h | >45 h |
